Experimental findings from US20180360782A1, “METHOD OF MODULATING RIBONUCLEOTIDE REDUCTASE” (CASE WESTERN RESERVE UNIVERSITY, priority 2015, published 2018) are described below.

One series addresses T1, hRR (hRRM1 and hRRM2) (Homo sapiens, UniProt P23921).
T1 sequence (P23921 1-792): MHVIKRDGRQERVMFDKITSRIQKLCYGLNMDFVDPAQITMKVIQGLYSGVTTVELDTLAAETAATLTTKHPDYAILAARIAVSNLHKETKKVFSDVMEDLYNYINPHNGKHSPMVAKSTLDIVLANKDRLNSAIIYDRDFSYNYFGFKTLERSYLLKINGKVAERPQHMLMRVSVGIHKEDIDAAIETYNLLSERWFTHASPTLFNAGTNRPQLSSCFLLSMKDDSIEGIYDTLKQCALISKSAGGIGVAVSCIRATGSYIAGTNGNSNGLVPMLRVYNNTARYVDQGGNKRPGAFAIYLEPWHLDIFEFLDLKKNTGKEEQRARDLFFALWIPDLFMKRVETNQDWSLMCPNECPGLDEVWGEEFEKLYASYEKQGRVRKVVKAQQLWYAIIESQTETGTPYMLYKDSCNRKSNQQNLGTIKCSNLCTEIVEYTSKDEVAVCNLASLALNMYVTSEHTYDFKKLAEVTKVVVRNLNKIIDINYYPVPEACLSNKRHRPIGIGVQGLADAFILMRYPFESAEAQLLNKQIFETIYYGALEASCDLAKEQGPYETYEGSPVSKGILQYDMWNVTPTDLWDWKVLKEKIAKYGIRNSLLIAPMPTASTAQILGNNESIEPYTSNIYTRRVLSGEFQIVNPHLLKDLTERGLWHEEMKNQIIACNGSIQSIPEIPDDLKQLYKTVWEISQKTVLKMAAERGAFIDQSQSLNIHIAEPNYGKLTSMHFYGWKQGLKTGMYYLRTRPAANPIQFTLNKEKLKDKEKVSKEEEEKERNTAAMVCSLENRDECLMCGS
T1 sequence (P31350 1-389 partner): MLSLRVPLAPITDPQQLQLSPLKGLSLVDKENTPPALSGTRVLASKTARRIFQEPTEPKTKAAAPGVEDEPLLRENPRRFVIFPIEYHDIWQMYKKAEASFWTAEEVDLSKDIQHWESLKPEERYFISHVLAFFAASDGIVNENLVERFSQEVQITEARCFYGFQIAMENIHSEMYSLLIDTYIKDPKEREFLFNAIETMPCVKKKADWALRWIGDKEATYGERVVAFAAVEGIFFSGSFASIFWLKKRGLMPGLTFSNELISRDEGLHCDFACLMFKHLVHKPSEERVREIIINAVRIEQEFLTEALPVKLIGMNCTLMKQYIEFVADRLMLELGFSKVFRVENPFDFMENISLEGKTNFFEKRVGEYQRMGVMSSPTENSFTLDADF
Briefly: biochemical.

The subject of series [1] is MDA-MB-231, HCT116, A549 and Panc1 cell lines. Description: Detailed growth inhibition studies, median effect dose. Type of series: cell-based. As to conditions: Homo sapiens, 72 h, read-out: median effect dose (Dm), growth inhibitory activity. As to the method: Cell were maintained in standard tissue culture media (RPMI1640, +10% fetal bovine serum, plus antibiotic) and grown in a standard humidified 5% CO2 incubator at 37° C. […] For moderate throughput screening (up to 120 drugs per experiment), cells were seeded into 96 well plates and allowed to attach overnight. The following day media was removed and replaced with fresh compound containing media. Each compound was tested against both cell lines at 3 concentrations; 1 μM, 10 μM and 50 μM, in duplicate. Cells were incubated with compound containing media for three days in a standard 5% CO2 tissue culture incubator. Cell growth was assessed after 3 days using the DNA dye binding assay, as originally described by LaBarca and Paigen. Relative growth was independently calculated for each cell line, based on DNA content from corresponding cells grown in control media plus diluent (DMSO). […] The following day media was removed and replaced with drug containing media.
Over 190 compounds were screened for their ability to inhibit growth and/or induce cell death in established cancer cell lines.

The subject of series [2] is MDA-MB-231 and HCT-116 cell lines. Briefly: Growth inhibition screening assay (In Cell IC50). Type of series: cell-based, human. To be noted: Homo sapiens, 72 h; 3 days with compound. As to the method: (§1) Cell were maintained in standard tissue culture media (RPMI1640, +10% fetal bovine serum, plus antibiotic) and grown in a standard humidified 5% CO2 incubator at 37° C. Cells were regularly tested using the MycoAlert detection kit (Lonza Biologics) and shown to be mycoplasma-free. Initial compound screening was performed using both MDA-MB-23 land HCT-116 cell lines. For moderate throughput screening (up to 120 drugs per experiment), cells were seeded into 96 well plates and allowed to attach overnight. The following day media was removed and replaced with fresh compound containing media. Each compound was tested against both cell lines at 3 concentrations; 1 μM, 10 μM and 50 μM, in duplicate. Cells were incubated with compound containing media for three days in a standard 5% CO2 tissue culture incubator. Cell growth was assessed after 3 days using the DNA dye binding assay, as originally described by LaBarca and Paigen. Relative growth was independently calculated for each cell line, based on DNA content from corresponding cells grown in control media plus diluent (DMSO). Additional growth inhibition experiments utilized either the DNA binding assay or the Promega CellTiter 96® (MTT reduction) assay, with similar results. For detailed growth inhibition assays, cells (1500-2500 depending on the growth characteristics of the cell line) were seeded in standard 96 well tissue culture plates and allowed to attach overnight. The following day media was removed and replaced with drug containing media. Each dose group consisted of 5 replicate wells, and results are reported a Relative Growth, calculated as DNA or MTT reduction per well, divided by the signal from untreated cells, both harvested 3 days after drug administration.

The target in a further series is T2, RR (Homo sapiens, UniProt P23921).
T2 construct: endogenous in cells; host or cells: established human cancer cell lines (MDA-MB-231, HCT-116; also A549, Panc1)
T2 sequence (P23921 1-792): T1 sequence (P23921 1-792)
T2 sequence (P31350 1-389 partner): T1 sequence (P31350 1-389 partner)
Briefly: In Vivo RR IC50 (Table 2). It is filed as cell-based. To be noted: In Vivo RR IC50^b (μM).

The subject of a further series is HCT116. Briefly: Time dependence of growth inhibitory activity, HCT116. It is filed as cell-based. To be noted: Homo sapiens, HCT-116. As to the method:
(§2) The growth inhibition assay was performed in the Preclinical Drug Testing Laboratory of the Case Comprehensive Cancer Center using a standardized protocol. Cell lines (human colon cancer HCT116 and human breast cancer MDA-MB-231 cells) were maintained in standard growth media; RPMI1640+10% FBS+2 mM glutamine+100U/ml penicillin, 100 ug/ml streptomycin and shown to be negative for mycoplasma contamination using the MycoAlert™ Mycoplasma Detection kit (Lonza, Basel, Switzerland). Cell identity was verified by Short Tandem Repeat (STR) testing performed using the Promega StemElite kit, in the Genetic Resources Core Facility (GRCF) at Johns Hopkins University.
(§3) For growth inhibition assays, cells were harvested by trypsinization and seeded into 96-well tissue culture plates at 2500 cells/mL. The following day an equal volume of 2×-drug containing medium was added to each well. […] Cell growth was assessed by measuring DNA content per well using the method of Labarca and Paigen. Dye fluorescence was measured in a Perkin-Elmer 1420 Victor3 Multilabel plate reader using 355 nm excitation and 460 nm emission.

Another series concerns select cancer cell lines. Description: Cellular IC50 of NSAAH library (Table 3). It is filed as cell-based. As to the method: as §1
Series [3] has as its system normal mobilized peripheral blood progenitor cells. Description: Blood progenitor colony forming unit (CFU) assay. Type of series: cell-based, human. As to conditions: 14 days. How it is done: The CFU assay was performed in the Hematopoietic Biorepository and Cellular Therapy Core Facility of the Case Comprehensive Cancer Center using a standardized protocol.
Briefly, mobilized peripheral blood mononuclear cells were collected from healthy donors by apheresis after Neupogen stimulation under University Hospitals IRB Protocol #09-90-195. Excess discarded cells were diluted to 1(10^6) cells/mL in RPMI1640+15% fetal bovine serum, 100 U/mL penicillin, 100 μg/mL streptomycin and 50.4 units/ml GM-CSF. Drug solution was added to the cell suspension and 9× volume of complete methylcellulose (Methocult H4434+50 μM hemin.). The methylcellulose/cell suspension was aliquoted into triplicate 35-mm gridded tissue culture plates and incubated in a humidified 5% CO2 incubator at 37° C. for 14 days. Plates were counted visually and clusters of >50 cells were scored as surviving colonies.

The next series concerns Panc1. Briefly: Time dependence of growth inhibitory activity, Panc1. Type of series: cell-based. To be noted: Homo sapiens, PANC-1.
For the next series, the system named is MDA-231. Description: Time dependence of growth inhibitory activity, MDA-231. It is filed as cell-based. As to conditions: Homo sapiens, MDA-MB-231. How it is done: as §2, §3
Series [4] can be described thus: Metal chelation by UV spectroscopy titration, Mg2+. Type of series: physicochemical. To be noted: 100 μM ligand, 10 mM ammonium acetate pH 7.0, metal 100 μM to 1 mM. The text has this: There have been multiple reports of small molecule agents inhibiting RR through the scavenging of free radicals that are required for the reduction of nucleotide diphosphates. Nitric oxide and hydroxyurea (that quench the tyrosyl free radicals), and iron chelating small molecules such as desferrioxamine (that irreversibly chelate to Fe-(II) that is essential for -housing the free radicals) are a few examples. […] Therefore to test this hypothesis, the propensity of NSAAH-E-3A to bind to Mg^2+ and Fe^2+ (both present in the inhibition assay previously described) was determined by UV spectroscopy. In 10 mM ammonium acetate buffer (pH 7.0), a 100 μM solution of NSAAH-E-3A was titrated against FeCl2.6H2O and MgCl2.6H2O idependently at varying concentrations of metal ranging from 100 μM to 1 mM. The stoichiometry of NSAAH-E-3A : M^2+ tested were 1:1, 1:2, 1:3, 1:4, 1:5, 1:6, 1:7, 1:8, 1:9, and 1:10. A scanning UV […] spectrum was recorded between 200-800 nm at each concentration. Noticeable changes occurred -when NSAAH-E-3A was subjected to a titration with FeCl2.6H2O at concentrations of metal ranging from 600 μM to 1 mM. […] Similarly, a titration experiment was carried against Mg^2+ salt at concentrations of metal ranging from 100 μM to 1 mM at stoichiometry of 1:1, 1:2, 1:3, 1:4, 1:5, 1:6, 1:7, 1:8, 1:9, and 1:10.

The subject of another series is MDA-MB-231. Description: Combination experiment: gemcitabine with sublethal compound 2. To be noted: Homo sapiens, MDA-MB-231, read-out: Dm, Gemcitabine alone.

Where two headings read alike, the source gives them in different places.

Method for hRR (hRRM1 and hRRM2): The buffer solution (50 mM HEPES at pH 7.6, 5% (v/v) glycerol, 0.1M KCl) and the hRRM2 protein in the buffer solution were prepared under deoxygenated conditions. Both solutions were taken into the glove box and FeNH4SO4 was dissolved in the buffer solution. 5 equivalents of Fe (II) per hRRM2 dimer from FeNH4SO4 (determined by Ferrozine assay) was added to the protein solution and incubated at 4° C. in the glove box. Upon removal of the protein from the glove box, freshly prepared O2-saturated buffer solution (50 mM HEPES at pH 7.6, 5% (v/v) glycerol, 0.1M KCl) was added. Excess iron was removed by S200 10/300 size exclusion chromatography. […] The reaction mixture was pre-incubated for 3 min at 37° C., and 30 μL aliquots were sampled at fixed time intervals after initiating the reaction. Reactions were quenched by immersion in a boiling water bath, cooling, and treatment with alkaline phosphatase. The product ^14-dADP that formed during the reaction was separated from substrate-ADP using boronate affinity chromatography. ^14-dADP was quantified by liquid scintillation counting using a Beckman LS6500 liquid scintillation counter.
Briefly, boronate chromatography was used to separate the product.

As to `O=C(CCCCCCCCC(=O)N/N=C/c1c(O)ccc2ccccc12)N/N=C/c1c(O)ccc2ccccc12` [compound 4, N′1,N′10-bis((E)-(2-hydroxynaphthalenyl)methylene) decanedihydrazide], the IC50 against hRR (hRRM1 and hRRM2) was 39800 ± 900 nM; in series [1] (set of four cell lines, 3 days), 1000 to 10000 nM; in series [2], 60 to 2000 nM; at RR (1 μM, sub-column 1 μM) it was 0.674 µM; on RR (10 μM, sub-column 10 μM), 0.792 µM.
In the case of `O=C(N/N=C/c1c(O)ccc2ccccc12)c1ccccc1O` [compound 3, (E)-2-hydroxy-N′-((2-hydroxynaphthalenyl)methylene) benzohydrazide], the IC50 with HCT116 (HCT116, Drug Exposure 2 hr) was greater than 10000 nM; in the series with HCT116 (HCT116, Drug Exposure 6 hr), greater than 10000 nM; in the series on HCT116 (HCT116, Drug Exposure 24 hr), 572 nM; in the series with HCT116 (HCT116, Drug Exposure 72 hr), 221 nM; in the series on select cancer cell lines, 0.225 nM; with Panc1 (Panc1, Drug Exposure 2 hr), greater than 10000 nM. The IC50 in the series with Panc1 (Panc1, Drug Exposure 6 hr) was greater than 10000 nM; in the series on Panc1 (Panc1, Drug Exposure 24 hr), 898 nM; in the series on Panc1 (Panc1, Drug Exposure 72 hr) it was 442 nM; in the series with MDA-231 (MDA-231, Drug Exposure 2 hr), greater than 10000 nM; with MDA-231 (MDA-231, Drug Exposure 6 hr), greater than 10000 nM; with MDA-231 (MDA-231, Drug Exposure 24 hr), 658 nM. Also, the IC50 in the series on MDA-231 (MDA-231, Drug Exposure 72 hr) was 498 nM; in series [1], 500 to 1000 nM; in [2], 380 nM. In addition, in series [3], the “cytotoxicity against normal blood progenitor cells” value is “little measurable cytotoxicity”. Moreover, the “ligand:Mg^2+ stoichiometry at which the UV spectrum shows binding” value in series [4] is listed as “no noticeable change”.
For the compound `Nc1ccn([C@@H]2O[C@H](CO)[C@@H](O)C2(F)F)c(=O)n1` [Gemcitabine, reference compound], the IC50 in the series on HCT116 (HCT116, Drug Exposure 2 hr) is 487 nM; with HCT116 (HCT116, Drug Exposure 6 hr) it was 343 nM; with HCT116 (HCT116, Drug Exposure 24 hr), 58 nM; in the series with HCT116 (HCT116, Drug Exposure 72 hr), 30 nM; in the series on Panc1 (Panc1, Drug Exposure 2 hr), 680 nM; with Panc1 (Panc1, Drug Exposure 6 hr) it was 406 nM. Moreover, the IC50 was 84 nM in the series on Panc1 (Panc1, Drug Exposure 24 hr); 46 nM with Panc1 (Panc1, Drug Exposure 72 hr); 1930 nM with MDA-231 (MDA-231, Drug Exposure 2 hr); 1540 nM with MDA-231 (MDA-231, Drug Exposure 6 hr); 274 nM in the series on MDA-231 (MDA-231, Drug Exposure 24 hr); 100 nM in the series on MDA-231 (MDA-231, Drug Exposure 72 hr). Further, the IC50 in [1] (set of four cell lines, 3 days) is 500 to 1000 nM; in the series on MDA-MB-231 it was 920 nM.
